Laboratory results taken from the NIST ThermoML archive (doi:10.1021/je050006+).

What was measured:
[1] = xn = mol fraction of the nth substance listed; settings: 101.3 kPa, Liquid
[2] = excess molar enthalpy (molar enthalpy of mixing); xn = mol fraction of the nth substance listed; settings: 101.3 kPa, Liquid

C=C1CCC2CC1C2(C)C (stereo not drawn) [β-pinene] + CCO
Settings	excess molar enthalpy, [2] [kcal/mol]	mass density, [1] [kg/m3]	speed of sound, [1] [m/s]
283.15 K, x1 = 0.0507	–	807.27	1209.5
283.15 K, x1 = 0.071	0.0261	–	–
283.15 K, x1 = 0.1012	–	815.62	1222.5
283.15 K, x1 = 0.142	0.0492	–	–
283.15 K, x1 = 0.2046	–	829.52	1246.3
283.15 K, x1 = 0.269	0.0798	–	–
283.15 K, x1 = 0.3015	–	839.85	1265.4
283.15 K, x1 = 0.394	0.0997	–	–
283.15 K, x1 = 0.4042	–	848.66	1282.4
283.15 K, x1 = 0.496	0.109	–	–
283.15 K, x1 = 0.5145	–	856.44	1298.8
283.15 K, x1 = 0.599	0.117	–	–
283.15 K, x1 = 0.6019	–	861.6	1309.4
283.15 K, x1 = 0.689	0.117	–	–
283.15 K, x1 = 0.6981	–	866.52	1320.5
283.15 K, x1 = 0.773	0.115	–	–
283.15 K, x1 = 0.7932	–	870.77	1330.4
283.15 K, x1 = 0.864	0.105	–	–
283.15 K, x1 = 0.8762	–	874.13	1339.3
283.15 K, x1 = 0.93	0.0844	–	–
283.15 K, x1 = 0.9355	–	876.41	1345.8
283.15 K, x1 = 0.964	0.0664	–	–
283.15 K, x1 = 0.9799	–	878.19	1353.4
298.15 K, x1 = 0.0502	–	794.53	1156.2
298.15 K, x1 = 0.071	0.0349	–	–
298.15 K, x1 = 0.1022	–	803.02	1168.9
298.15 K, x1 = 0.142	0.0645	–	–
298.15 K, x1 = 0.1999	–	816.23	1189.9
298.15 K, x1 = 0.269	0.104	–	–
298.15 K, x1 = 0.3045	–	827.43	1209
298.15 K, x1 = 0.394	0.129	–	–
298.15 K, x1 = 0.4019	–	835.85	1224.1
298.15 K, x1 = 0.496	0.14	–	–
298.15 K, x1 = 0.5	–	842.91	1237.4
298.15 K, x1 = 0.599	0.145	–	–
298.15 K, x1 = 0.6017	–	849.06	1249.8
298.15 K, x1 = 0.689	0.145	–	–
298.15 K, x1 = 0.6999	–	854.18	1260.6
298.15 K, x1 = 0.7626	–	857.17	1264.9
298.15 K, x1 = 0.773	0.139	–	–
298.15 K, x1 = 0.864	0.122	–	–
298.15 K, x1 = 0.89	–	862.45	1280.4
298.15 K, x1 = 0.93	0.0932	–	–
298.15 K, x1 = 0.9415	–	864.49	1286.3
298.15 K, x1 = 0.964	0.0777	–	–
298.15 K, x1 = 0.98	–	866.07	1294.5
313.15 K, x1 = 0.052	–	782.17	1104.8
313.15 K, x1 = 0.071	0.0433	–	–
313.15 K, x1 = 0.1041	–	790.76	1116.6
313.15 K, x1 = 0.142	0.0813	–	–
313.15 K, x1 = 0.2043	–	804.04	1135.7
313.15 K, x1 = 0.269	0.135	–	–
313.15 K, x1 = 0.3029	–	814.57	1151.7
313.15 K, x1 = 0.394	0.171	–	–
313.15 K, x1 = 0.4046	–	823.44	1167
313.15 K, x1 = 0.496	0.19	–	–
313.15 K, x1 = 0.4981	–	830.17	1178.5
313.15 K, x1 = 0.599	0.2	–	–
313.15 K, x1 = 0.6014	–	836.54	1189.8
313.15 K, x1 = 0.689	0.199	–	–
313.15 K, x1 = 0.6979	–	841.7	1198.7
313.15 K, x1 = 0.773	0.191	–	–
313.15 K, x1 = 0.809	–	846.76	1207
313.15 K, x1 = 0.864	0.167	–	–
313.15 K, x1 = 0.8844	–	850.12	1213.6
313.15 K, x1 = 0.93	0.137	–	–
313.15 K, x1 = 0.9356	–	852.26	1221.9
313.15 K, x1 = 0.964	0.0944	–	–
313.15 K, x1 = 0.985	–	854.6	1228.9
